From PMC8190080, “Tanshinones induce tumor cell apoptosis via directly targeting FHIT” (Scientific Reports, 2021) come the findings set out here.

Assay [1] concerns the target T1, FHIT (Homo sapiens, UniProt P49789).
T1 construct: GST (N, cleaved yes); made in house; host or cells: E. coli BL21 (DE3)
Briefly: MST assay of the binding between tanshinone compounds and FHIT. The following applies: Fig. 4B, FHIT preparation not stated. As to the method:
Ten million 293 cells overexpressing GFP-tagged FHIT or free GFP were lysed in 0.5 mL M-PER mammalian protein extraction reagent (Thermo Fisher Scientific). Cell lysates were diluted in PBS buffer to a final concentration at which the fluorescent signals of the GFP proteins were suitable for the detection of the Monolith NT.115 instrument (NanoTemper Technologies). A single point screening assay was developed against GFP-FHIT protein to find potential binding molecules from compound libraries (L1021,APExBIO). For binding affinity detection, a 10µL protein sample was mixed with 10µL ligand at various concentrations as indicated. And the purified proteins were labeled by Red- NHS kit in accordance with the manufacturer’s protocol (MO-L011, NanoTemper Technologies). Then the mixture solutions were loaded into NT.115 standard coated capillaries or premium coated capillaries (NanoTemper Technologies), and the MST measurements were performed at 25 °C. The fluorescence signal during the thermophoresis was monitored and the change in fluorescence was analyzed by software. The Kd was calculated by fitting a standard binding curve to the series diluted ligands. And data were analyzed by GraphPad Prism 7.0.

In assay [2] the target is T1, FHIT. Briefly: Fluorescent thin layer enzyme assay with ApppBODIPY (FHIT). It counts as biochemical. Particulars: 10 nM Fhit, 5 µM ApppBODIPY, TLC; read-out: IC50, FHIT hydrolase activity (TLC assay). How it is done: Fluorescent substrates ApppBODIPY at 5 µM were incubated with purified Fhit protein 10 nM in reactions at 25 °C containing 20 mM Tris–HCl, pH7.5, 150 mM NaCl, and 5 mM MgCl2. Competitive compounds, when indicated at series concentrations, were mixed with a fluorescent substrate. Reaction samples (0.6µL) were spotted on silica TLC plates (MERCK) at 60–120 s intervals. Plates were air-dried and developed in 2-propanol:NH4OH:1,4-dioxane: H2O (50:35:8:7) as reported before. Developed plates were imaged by fluorescein blot (ChemiDoc, Bio-Rad).

The test system of assay [3] is HCT116 cells. Put plainly: CCK-8 assay for cell inhibitory rate. It counts as cell-based, human. The following applies: WT HCT116 cells, 2 µM. As to the method:
The CCK-8 (Cell-Counting Kit-8) assay was used to detect the cells’inhibitory rate following the manufacturer’s protocol (APExBIO). Cells were seeded into 96-well plates at the density of 4 × 10^3(cells/well) overnight at 37 °C. After that, the culture medium was removed and the cells were treated with different concentrations of TSA (0, 1, 2, 5, 10 µM) or STS (0, 10, 25, 50, 100 µM) for 24 h, 48 h, 72 h respectively. Then 10 μL CCK-8 reagent was added into each well and incubated for another 2 h, OD450 was measured by a microplate reader (spark, TECAN).
In general terms: Tetrazolium dyes change colour on reduction, which living cells bring about.

Assay [4] has as its system HCT116 cells. Put plainly: Colony formation assay. The assay is classed as cell-based, human. Particulars: 1 µM, 14 days. As to the method:
ENPP1 hydrolase activity detection assay
ENPP1 protein (4ng/µl) was mixed with series diluted compounds as indicated in assay buffer (50mM Tris-HCl, 2mM CaCl2, 2mM MgCl2, pH9.0) in a final DMSO concentration of 1% in a total volume of 20μL. The mixtures were incubated for 30min at 25°C, then 4µM Ap3A was added. After incubation at 25°C for 10min, ENPP1 should be inactivated at 85°C for 5min.
Then the production of ADP in the reaction system was detected by ADP-Glo reagent (V6930, Promega) according to the manufacturer’s protocol in 384-well. Luminescence was read by spark (TECAN), an integration time of 1 second per well. And the data were analyzed by […]
Fluorescent thin layer enzyme assay for ENPP1
Small molecules, when indicated at series concentrations, were mixed with 2.5µM the fluorescent substrate ApppBODIPY. Then, 10nM purified ENPP1 protein was added to the reaction system at 25°C containing 50mM Tris-HCl pH9.0, 2mM CaCl2, 2mM MgCl2. Reaction samples (0.6µL) were spotted on silica TLC plates (Merck) at 60–120s intervals. Plates were air-dried and developed in 2-propanol:NH4OH:1,4-dioxane: H2O (50:35:8:7) as reported before. Developed plates were imaged by fluorescein blot (ChemiDoc, Bio-rad).
Colony formation assay was performed as described before. Briefly, ~200/well single cells were planted into 6-well plate. […]

The next assay deals with WT HCT116 cells. Briefly: Apoptosis detection by flow cytometry (Annexin V/PI), WT HCT116 cells. The assay is classed as cell-based, human. How it is done: (§1) HCT116 cells treated with indicated compounds were digested with 0.25% trypsin (Gibco). The cells were harvested by centrifugation at 1000 rpm for 5 min. The trypsinization time should not be too long to prevent false positives. The cells were washed twice with pre-cooled PBS. The cells were resuspended with 1 × annexin-binding buffer and the cell density was adjusted to ~ 1 × 10^6 cells/ml. Then 5µL Alexa Fluor 488 annexin V and 1 µL 100 µg/mL PI working solution (V13241, Invitrogen) was added to each 100 µL cell suspension. The cells were incubated at room temperature in the dark for 15 min. After the incubation, 400 µL 1 × annexin-binding buffer was added to the cells, mixed gently, and kept the samples on ice. Analyze the stained cells by flow cytometry as soon as possible. The V-FITC positive and PI negative cells were recorded as apoptotic cells.
Background: Flow cytometry measures light scatter and fluorescence of single cells or particles in a stream.

In a further assay the test system is FHIT KO HCT116 cells. Put plainly: Apoptosis detection by flow cytometry (Annexin V/PI), FHIT KO HCT116 cells. The following applies: for apoptosis: KO cells. The assay is classed as cell-based, human.
Source text: FHIT gene was deleted in HCT116 cells by CRISPR/Cas9 genome editing. A plasmid pL- CRISPR.EFS.GFP (#57,818, Addgene) encoding both the Cas9 protein and the sgRNA was used. The Cas9 sequence is coupled to a P2A site and EGFP. Expression of the Cas9 protein results in simultaneous expression of EGFP, allowing for the selection of positively transfected cells. Two sgRNA toward exon5 and exon6 of the FHIT gene, respectively, were designed by using the optimized CRISPR design online tool (http://crispr.cos.uni-heidelberg.de). The primers sequences of the sgRNA used were shown as below: sgRNA1 for exon5 forward, 5’[…]3’, reverse, 5’[…] GGACAC3’; sgRNA2 for exon6 forward, 5’[…]3’, reverse, 5’[…]3’. Plasmids containing the right insertion were then sequenced by Sangon Biotech Company (Shanghai, China). The two CRISPR/Cas9 plasmids were co-transfected into HCT116 cells as 1:1 using Lipofectamine3000 (Invitrogen). After 48 h, EGFP positive single cell was sorted into 96-well plates and the plates were left in the incubator for 7–14 days or until small colonies could be seen by the naked eye. Genomic DNA of each well was extracted by QuickExtract DNA Extraction Solution (Epicenter, Madison, WI) to do PCR identification. And the PCR products were then Sanger-sequenced to identify clones that would result in frameshifts and truncated protein products. Sequence alignment and genomic PCR primers were shown as below: forward, 5′[…]3′, revers, 5′[…]3′.
as §1, with “The cells were incubated at room temperature in the dark for 15 min. After the incubation, 400 µL 1 × annexin-binding buffer was added to the cells, mixed gently, and kept the samples on ice. Analyze the stained cells by flow cytometry as soon as possible.” left out

Assay [5] addresses T1, FHIT. Briefly: FHIT hydrolase activity detection assay (Ap3A, ADP-Glo). Particulars: 5 nM FHIT, 500 nM Ap3A, ADP production by ADP-Glo. It counts as biochemical. As to the method:
5 nM FHIT protein was mixed with series diluted compounds as indicated in assay buffer (20 mM Tris–HCl, 2 mM DTT, 5 mM MgCl2, pH7.5) in a final DMSO concentration of 1% in a total volume of 20 μL. The mixtures were incubated for 30 min at 25 °C, then 500 nM Ap3A was added. After incubation at 25 °C for 5 min, the production of ADP in the reaction system was detected by ADP-Glo reagent (V6930, Promega) according to the manufacturer’s protocol in 384-well. Luminescence was read by spark (TECAN), an integration time of 1 s per well. And the data were analyzed by GraphPad Prism 7.0.
Background: In ADP-Glo the light output rises with the ADP produced.

A further assay concerns the target T2, FHIT (H96N) (Homo sapiens, UniProt P49789, H96N).
T2 construct: GST (N, cleaved yes); made in house; host or cells: E. coli BL21 (DE3)
Put plainly: Fluorescence polarization assay, FHIT H96N-ApppBODIPY binding inhibition. The following applies: 5 µM FHIT (H96N), 1 µM ApppBODIPY. As to the method: The binding of FHIT (H96N) to fluorescein-labeled substrates ApppBODIPY was analyzed by fluorescence polarization assay in 384-well format for dose–response curve studies using spark instrument (TECAN) according to the protocol reported before. And 5 µM FHIT (H96N) protein was incubated with 1 µM fluorescein-labeled substrates in buffer A (25 mM Tris–HCl, pH 7.5, 5 mM MgCl2 and 2 mM DTT) with series diluted inhibitors as indicated. Each sample was allowed to equilibrate in the solution for 30 min. After 30 min, the steady-state fluorescence anisotropy (mP) was measured. A second reading was taken after 10 min, to ensure that the mixture was well-equilibrated and stable. Less than 5% change was observed between 30 and 40 min measurements. The IC50 value was determined by fitting the binding curves using GraphPad Prism 7.0.

SMILES strings stand for the structures.

What is called Kd is the constant that tells how readily two partners part at equilibrium. What is called IC50 is the point on the concentration scale where inhibition reaches its midpoint.

T1 sequence (P49789 whole entry): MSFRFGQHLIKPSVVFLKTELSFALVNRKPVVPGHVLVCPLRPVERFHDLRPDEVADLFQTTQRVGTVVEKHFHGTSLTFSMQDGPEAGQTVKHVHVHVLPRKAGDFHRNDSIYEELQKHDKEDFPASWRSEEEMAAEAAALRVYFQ
T2 sequence (P49789 whole entry H96N): as the sequence (P49789 whole entry) above, with H96N counted along it

On to `Cc1coc2c1C(=O)C(=O)c1c-2ccc2c1CCCC2(C)C` [TSA, Tanshinone IIA], for which, at FHIT [1], the Kd amounted to 112 ± 27.3 nM. The IC50 on FHIT [2] was 4000 to 6000 nM. Moreover, in the assay with HCT116 cells [3], the “growth of HCT116 cells (CCK8)” value is reported as “significantly inhibits the growth”. Further, the “colony formation of HCT116 cells” value in the assay on HCT116 cells [4] is listed as “clearly abolished the colony formation”. In addition, the apoptosis rate turned out to be 13.5% in the assay with WT HCT116 cells (5 µM, 24 h) and 4.9% in the assay on FHIT KO HCT116 cells (FHIT KO cells, 5 µM, 24 h).
Regarding `C[C@H]1COC2=C1C(=O)C(=O)c1c2ccc2c1CCCC2(C)C` [CST, Cryptotanshinone], the Kd on FHIT [1] turned out to be 123 ± 31.7 nM. Besides, at FHIT [2], the IC50 fell in the range of 4000 to 6000 nM.
For the molecule `Cc1ccc(C(=O)Nc2ccc(S(=O)(=O)O)c3cc(S(=O)(=O)O)cc(S(=O)(=O)O)c23)cc1NC(=O)c1cccc(NC(=O)Nc2cccc(C(=O)Nc3cc(C(=O)Nc4ccc(S(=O)(=O)O)c5cc(S(=O)(=O)O)cc(S(=O)(=O)O)c45)ccc3C)c2)c1` [suramin], the IC50 on FHIT [5] amounted to 260 ± 80 nM; on FHIT (H96N), 2600 ± 44 nM.
On to `CC[C@@]1(O)C(=O)OCc2c1cc1n(c2=O)Cc2cc3ccccc3nc2-1` [CPT, camptothecin], for which the apoptosis in the assay with WT HCT116 cells (1 µM) is reported as 24.9%; in the assay with FHIT KO HCT116 cells (1 µM) it was 5.3%.
As for `Cc1coc2c1C(=O)C(=O)c1c-2ccc2c(C)cccc12` [TanI, tanshinone I], binding on FHIT [1] was put at a Kd of 466 ± 60 nM. Further, the IC50 on FHIT [2] fell in the range of 4000 to 6000 nM. For the same molecule, the figures for the apoptosis with WT HCT116 cells (10 µM) and in the assay on FHIT KO HCT116 cells (10 µM) were 31.66% and 12.7%, respectively.
